From article PMC10017821, “Polycystic kidney disease 2-like 1 channel contributes to the bitter aftertaste perception of quinine” (Scientific Reports, 2023)

Biological target: T1, PKD2L1 (polycystic kidney disease 2-like 1 channel) (Mus musculus, UniProt A2A259)
T1 construct: mouse PKD2L1 in pCINeo/IRES-GFP, transiently expressed in HEK293T cells; no PKD1L3 co-expression mentioned; homotetramer (known biology)
T1 sequence (A2A259 1-760): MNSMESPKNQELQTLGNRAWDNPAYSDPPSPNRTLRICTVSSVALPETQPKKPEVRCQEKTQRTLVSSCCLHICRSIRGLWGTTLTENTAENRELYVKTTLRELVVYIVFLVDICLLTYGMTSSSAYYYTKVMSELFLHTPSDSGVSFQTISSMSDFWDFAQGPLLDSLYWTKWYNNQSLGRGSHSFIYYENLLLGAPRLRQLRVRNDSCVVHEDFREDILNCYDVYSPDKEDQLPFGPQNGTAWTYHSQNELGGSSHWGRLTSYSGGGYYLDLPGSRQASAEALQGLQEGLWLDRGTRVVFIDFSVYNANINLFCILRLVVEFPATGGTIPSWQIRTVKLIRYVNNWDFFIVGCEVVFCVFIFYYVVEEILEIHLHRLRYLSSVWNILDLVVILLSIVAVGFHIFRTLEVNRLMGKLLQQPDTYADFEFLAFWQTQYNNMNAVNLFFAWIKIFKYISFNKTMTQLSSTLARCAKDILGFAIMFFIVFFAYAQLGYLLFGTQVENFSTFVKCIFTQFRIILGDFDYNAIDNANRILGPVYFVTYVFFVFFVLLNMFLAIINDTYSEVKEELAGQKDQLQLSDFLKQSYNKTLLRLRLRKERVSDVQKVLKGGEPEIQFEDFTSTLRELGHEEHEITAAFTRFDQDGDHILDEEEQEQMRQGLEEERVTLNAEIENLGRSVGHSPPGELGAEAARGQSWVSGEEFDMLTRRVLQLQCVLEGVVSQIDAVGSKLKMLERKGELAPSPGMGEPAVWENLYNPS
Assay: whole-cell patch clamp, channel activity (NPo) at -60 mV
Type: cell-based

- EC50: 33 µM
SMILES: C=C[C@H]1C[N@@]2CC[C@H]1C[C@H]2[C@H](O)c1ccnc2ccc(OC)cc12 [quinine]
